Patent publication US9309200B2, “Benzazepine derivatives, pharmaceutical compositions containing them, and their use in therapy” (AbbVie Deutschland GmbH & Co. KG, priority 2011, dated 2016)

How the values were obtained:
human GlyT1c transporter = biological target: T1, human GlyT1c transporter (Homo sapiens, UniProt P48067); test: Radioligand binding assay using recombinant CHO cell membranes expressing human GlyT1; conditions: read-out: radioligand binding Kiapp
T1 construct: expressed in transfected cells; host or cells: recombinant CHO cells (membranes); the uptake assay names the line hGlyT1c_5_CHO
T1 sequence (P48067 1-706): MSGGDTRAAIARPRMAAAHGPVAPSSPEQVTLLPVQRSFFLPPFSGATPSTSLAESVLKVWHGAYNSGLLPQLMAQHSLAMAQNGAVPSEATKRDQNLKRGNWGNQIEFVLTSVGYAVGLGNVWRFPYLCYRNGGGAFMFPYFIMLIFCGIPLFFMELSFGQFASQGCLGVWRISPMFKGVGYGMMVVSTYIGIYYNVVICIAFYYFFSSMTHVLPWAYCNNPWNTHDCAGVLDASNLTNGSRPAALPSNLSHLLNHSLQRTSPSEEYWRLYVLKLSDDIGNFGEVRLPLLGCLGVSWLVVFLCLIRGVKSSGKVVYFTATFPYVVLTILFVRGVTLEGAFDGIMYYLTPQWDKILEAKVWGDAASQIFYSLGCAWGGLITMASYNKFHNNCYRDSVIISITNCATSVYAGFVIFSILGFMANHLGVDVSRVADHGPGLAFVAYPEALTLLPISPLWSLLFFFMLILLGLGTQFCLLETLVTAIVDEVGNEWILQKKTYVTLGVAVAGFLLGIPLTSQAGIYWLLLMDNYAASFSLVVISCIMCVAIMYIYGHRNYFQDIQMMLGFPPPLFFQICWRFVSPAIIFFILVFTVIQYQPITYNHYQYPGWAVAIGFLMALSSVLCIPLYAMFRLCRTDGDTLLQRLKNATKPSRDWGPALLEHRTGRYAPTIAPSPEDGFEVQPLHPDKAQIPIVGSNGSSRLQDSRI
Experimental: 2. Radioligand Binding Assays Using Recombinant CHO Cell Membranes Expressing Human GlyT1:
Radioligand binding to human GlyT1c transporter-expressing membranes was determined as described in Mezler et al., Molecular Pharmacology 74:1705-1715, 2008.

[1] = Metabolic stability in human liver microsomes (microsomal clearance); assay type: in vitro ADME; conditions: human liver microsomes 0.25 mg protein/ml, 0.5 μM test substance, NADPH 1.0 mM, pH 7.4, 37° C.
Experimental: The metabolic stability of a compound can be measured for example by incubating a solution of this compound with liver microsomes from particular species (for example rat, dog or human) and determining the half-life of the compound under these conditions (R S Obach, Curr Opin Drug Discov Devel. 2001, 4, 36-44). It is possible in this connection to conclude from an observed longer half-life that the metabolic stability of the compound is improved. The stability in the presence of human liver microsomes is of particular interest because it makes it possible to predict the metabolic degradation of the compound in the human liver. Compounds with increased metabolic stability (measured in the liver microsome test) are therefore probably also degraded more slowly in the liver. The slower metabolic degradation in the liver may lead to higher and/or longer-lasting concentrations (active levels) of the compound in the body, so that the elimination half-life of the compounds of the invention is increased. Increased and/or longer-lasting active levels may lead to a better activity of the compound in therapeutic treatment. In addition, an improved metabolic stability may lead to an increased bioavailability after oral administration, because the compound is subject, after absorption in the intestine, to less metabolic degradation in the liver (so-called first pass effect). An increased oral bioavailability may, owing to an increased concentration (active level) of the compound, lead to a better activity of the compound after oral administration.
Metabolic stability was determined as follows:
0.5 μM test substance was preincubated together with human liver microsomes (0.25 mg of microsomal protein/ml) in 0.05 M potassium phosphate buffer of pH 7.4 in microtiter plates at 37° C. for 5 min. The reaction was started by adding NADPH (1.0 mM). After 0, 5, 10, 15, 20 and 30 min, 65 μl aliquots were removed, and the reaction was immediately stopped and cooled with twice the amount of ethanol. The samples were frozen until analyzed. The remaining concentration of undegraded test substance was determined by LC MSMS. The half-life (T½) was determined from the gradient of the signal of test substance/unit time plot, allowing to calculate the half-life of the test substance, assuming first order kinetics, from the decrease in the concentration of the compound with time. The microsomal clearance (mCl) was calculated from mCl=ln 2/T½/(content of microsomal protein in mg/ml)×1000 (modified from references: Di, The Society for Biomolecular Screening, 2003, 453-462; Obach, DMD, 1999 vol 27. N 11, 1350-1359).

| Structure (SMILES) | Ki (human GlyT1c transporter) [nM] | human mCl [1] |
| --- | --- | --- |
| CCCN1CCCc2ccc(CNS(=O)(=O)c3cn(C)cn3)cc2C1Cc1ccccc1 (stereo not drawn) [Example 37, 1-Methyl-1H-imidazole-4-sulfonic acid (1-benzyl-2-propyl-2,3,4,5-tetrahydro-1H-benzo[c]azepin-8-ylmethyl)-amide] | ≤ 10 | – |
| CN1CCCc2ccc(CNS(=O)(=O)c3cn(C)cn3)cc2C1Cc1ccccc1 (stereo not drawn) [Example 38, 1-Methyl-1H-imidazole-4-sulfonic acid (1-benzyl-2-methyl-2,3,4,5-tetrahydro-1H-benzo[c]azepin-8-ylmethyl)-amide] | ≤ 100 | – |
| CCN1CCCc2ccc(CNS(=O)(=O)c3cn(C)cn3)cc2C1Cc1ccccc1 (stereo not drawn) [Example 39, 1-Methyl-1H-imidazole-4-sulfonic acid (1-benzyl-2-ethyl-2,3,4,5-tetrahydro-1H-benzo[c]azepin-8-ylmethyl)-amide] | ≤ 100 | – |
| Cn1cnc(S(=O)(=O)NCc2cc3c(cc2F)CCCNC3Cc2ccccc2)c1 (stereo not drawn) [Example 41, 1-Methyl-1H-imidazole-4-sulfonic acid (1-benzyl-7-fluoro-2,3,4,5-tetrahydro-1H-benzo[c]azepin-8-ylmethyl)-amide] | ≤ 10 | – |
| O=C(O)/C=C/C(=O)O.O=S(=O)(CC1CC1)NCc1cc2c(cc1F)CCCNC2Cc1ccccc1 (stereo not drawn) [Example 44, N-(1-Benzyl-7-fluoro-2,3,4,5-tetrahydro-1H-benzo[c]azepin-8-ylmethyl)-C-cyclopropyl-methanesulfonamide; compound with (E)-but-2-enedioic acid] | ≤ 100 | ≦50 μl/min/mg |
| Cn1cnc(S(=O)(=O)NCCOc2cc3c(cc2F)CCCNC3Cc2ccccc2)c1 (stereo not drawn) [Example 45, 1-Methyl-1H-imidazole-4-sulfonic acid [2-(1-benzyl-7-fluoro-2,3,4,5-tetrahydro-1H-benzo[c]azepin-8-yloxy)-ethyl]amide] | ≤ 100 | ≦50 μl/min/mg |
| Cn1cnc(S(=O)(=O)NCc2ccc3c(c2)C(C(C)(C)c2ccccc2)NCCO3)c1 (stereo not drawn) [Example 47, 1-Methyl-1H-imidazole-4-sulfonic acid [5-(1-methyl-1-phenyl-ethyl)-2,3,4,5-tetrahydro-benzo[f][1,4]oxazepin-7-ylmethyl]-amide] | ≤ 10000 | – |
| Cn1cnc(S(=O)(=O)NCCOc2ccc3c(c2)C(Cc2ccccc2)NCCO3)c1 (stereo not drawn) [Example 48, 1-Methyl-1H-imidazole-4-sulfonic acid [2-(5-benzyl-2,3,4,5-tetrahydro-benzo[f][1,4]oxazepin-7-yloxy)-ethyl]-amide] | ≤ 100 | ≦50 μl/min/mg |
| CCS(=O)(=O)NCCOc1ccc2c(c1)C(Cc1ccccc1)NCCO2 (stereo not drawn) [Example 50, Ethanesulfonic acid [2-(5-benzyl-2,3,4,5-tetrahydro-benzo[f][1,4]oxazepin-7-yloxy)-ethyl]-amide] | ≤ 10000 | ≦50 μl/min/mg |
| CCCS(=O)(=O)NCCOc1ccc2c(c1)C(Cc1ccccc1)NCCO2 (stereo not drawn) [Example 51, Propane-1-sulfonic acid [2-(5-benzyl-2,3,4,5-tetrahydro-benzo[f][1,4]oxazepin-7-yloxy)-ethyl]-amide] | ≤ 1000 | ≦100 μl/min/mg |
| O=S(=O)(NCCOc1ccc2c(c1)C(Cc1ccccc1)NCCO2)C1CCC1 (stereo not drawn) [Example 52, Cyclobutanesulfonic acid [2-(5-benzyl-2,3,4,5-tetrahydro-benzo[f][1,4]oxazepin-7-yloxy)-ethyl]-amide] | ≤ 1000 | ≦100 μl/min/mg |

Further lines, results first:

| Ki (human GlyT1c transporter) [nM] | human mCl [1] | Structure (SMILES) |
| --- | --- | --- |
| ≤ 100 | – | O=S(=O)(CC1CC1)NCc1ccc2c(c1)C(Cc1cccc(F)c1)NCCC2 (stereo not drawn) [Example 28, C-Cyclopropyl-N-[1-(3-fluoro-benzyl)-2,3,4,5-tetrahydro-1H-benzo[c]azepin-8-ylmethyl)-methanesulfonamide] |
| ≤ 1000 | – | CCS(=O)(=O)NCc1ccc2c(c1)C(Cc1cccc(F)c1)NCCC2 (stereo not drawn) [Example 29, Ethanesulfonic acid [1-(3-fluoro-benzyl)-2,3,4,5-tetrahydro-1H-benzo[c]azepin-8-ylmethyl]-amide] |
| ≤ 100 | – | O=S(=O)(CC1CC1)NCc1ccc2c(c1)C(Cc1ccccc1)NCCC2 (stereo not drawn) [Example 30, N-(1-Benzyl-2,3,4,5-tetrahydro-1H-benzo[c]azepin-8-ylmethyl)-C-cyclopropyl-methane-sulfonamide] |
| ≤ 100 | – | O=S(=O)(NCc1ccc2c(c1)C(Cc1ccccc1)NCCC2)C1CCC1 (stereo not drawn) [Example 31, Cyclobutanesulfonic acid (1-benzyl-2,3,4,5-tetrahydro-1H-benzo[c]azepin-8-ylmethyl)-amide] |
| ≤ 1000 | – | CCCS(=O)(=O)NCc1ccc2c(c1)C(Cc1ccccc1)NCCC2 (stereo not drawn) [Example 32, Propane-1-sulfonic acid (1-benzyl-2,3,4,5-tetrahydro-1H-benzo[c]-azepin-8-ylmethyl)-amide] |
| ≤ 10000 | – | CCS(=O)(=O)NCc1ccc2c(c1)C(Cc1ccccc1)NCCC2 (stereo not drawn) [Example 33, Ethanesulfonic acid (1-benzyl-2,3,4,5-tetrahydro-1H-benzo[c]-azepin-8-ylmethyl)-amide] |
| ≤ 10 | – | Cn1cc(S(=O)(=O)NCc2ccc3c(c2)C(Cc2ccccc2)NCCC3)cn1 (stereo not drawn) [Example 34, 1-Methyl-1H-pyrazole-4-sulfonic acid (1-benzyl-2,3,4,5-tetra-hydro-1H-benzo[c]azepin-8-ylmethyl)-amide] |
| ≤ 10 | – | Cn1cnc(S(=O)(=O)NCc2ccc3c(c2)C(Cc2ccccc2)NCCC3)c1 (stereo not drawn) [Example 35, 1-Methyl-1H-imidazole-4-sulfonic acid (1-benzyl-2,3,4,5-tetra-hydro-1H-benzo[c]azepin-8-ylmethyl)-amide] |
| ≤ 100 | – | CN(Cc1ccc2c(c1)C(Cc1ccccc1)NCCC2)S(=O)(=O)c1cn(C)cn1 (stereo not drawn) [Example 36, 1-Methyl-1H-imidazole-4-sulfonic acid (1-benzyl-2,3,4,5-tetrahydro-1H-benzo[c]azepin-8-ylmethyl)-methyl-amide] |
| ≤ 100 | – | CCN(Cc1ccc2c(c1)C(Cc1ccccc1)NCCC2)S(=O)(=O)c1cn(C)cn1 (stereo not drawn) [Example 40, 1-Methyl-1H-imidazole-4-sulfonic acid (1-benzyl-2,3,4,5-tetrahydro-1H-benzo[c]azepin-8-ylmethyl)-ethyl-amide] |
| ≤ 1000 | ≦50 μl/min/mg | CCS(=O)(=O)NCc1cc2c(cc1F)CCCNC2Cc1ccccc1.O=C(O)C(F)(F)F (stereo not drawn) [Example 42, Ethanesulfonic acid (1-benzyl-7-fluoro-2,3,4,5-tetrahydro-1H-benzo[c]azepin-8-ylmethyl)-amide; compound with trifluoro-acetic acid] |
| ≤ 1000 | ≦50 μl/min/mg | CCS(=O)(=O)NCCOc1cc2c(cc1F)CCCNC2Cc1ccccc1 (stereo not drawn) [Example 43, Ethanesulfonic acid [2-(1-benzyl-7-fluoro-2,3,4,5-tetrahydro-1H-benzo-[c]azepin-8-yloxy)-ethyl]-amide] |
| ≤ 100 | ≦50 μl/min/mg | O=S(=O)(CC1CC1)NCCOc1cc2c(cc1F)CCCNC2Cc1ccccc1 (stereo not drawn) [Example 46, N-[2-(1-Benzyl-7-fluoro-2,3,4,5-tetrahydro-1H-benzo[c]azepin-8-yloxy)-ethyl]-C-cyclopropyl-methanesulfonamide] |
